BigSolDB 2.1

CC(=O)N1CCC[C@H]1C(=O)O
solubility (mole fraction)
Details | 283.15 K | 288.15 K | 293.15 K | 298.15 K | 303.15 K | 313.15 K | 323.15 K
in 1,4-dioxane | – | 0.0237 | 0.0291 | – | 0.0416 | 0.0673 | 0.13
in 2-butanone | 0.0113 | – | 0.0161 | – | 0.0237 | 0.0339 | 0.0553
in acetone | 0.0158 | – | 0.0247 | – | 0.0348 | 0.0484 | 0.0673
in acetonitrile | 0.0159 | – | 0.0335 | – | 0.0558 | 0.131 | 0.255
in dichloromethane | 0.0336 | 0.0448 | 0.0609 | 0.0785 | 0.0974 | – | –
in ethanol | 0.0754 | – | 0.111 | – | 0.156 | 0.219 | 0.278
in ethyl acetate | 0.00368 | – | 0.00634 | – | 0.0096 | 0.0133 | 0.0201
in isobutanol | 0.0448 | – | 0.0643 | – | 0.106 | 0.146 | 0.2
in isopropanol | 0.0448 | – | 0.0732 | – | 0.099 | 0.143 | 0.177
in methanol | 0.122 | – | 0.166 | – | 0.21 | 0.291 | 0.406
in methyl acetate | 0.00602 | – | 0.00997 | – | 0.0147 | 0.0213 | 0.0322
in n-butanol | 0.0412 | – | 0.059 | – | 0.0877 | 0.133 | 0.199
in n-pentanol | 0.0377 | – | 0.0532 | – | 0.075 | 0.111 | 0.158
in n-propanol | 0.0961 | – | 0.14 | – | 0.195 | 0.267 | 0.334
in sec-butanol | 0.0429 | – | 0.062 | – | 0.0915 | 0.132 | 0.189
in water | 0.0127 | – | 0.0188 | – | 0.0269 | 0.042 | 0.0738
